The numbers were not newly measured in patent US20250319149A1, “COMPOSITIONS FOR TREATING IMBALANCES OF THE GUT MICROBIOTA” (Provexis Natural Products Limited, priority 2022, published 2025), which cites them from elsewhere.

The data set has as its system TMAO-induced atherosclerosis. The following applies: mice; Chen et al.

In the case of `Oc1ccc(C=Cc2cc(O)cc(O)c2)cc1` [resveratrol], the TMAO-induced atherosclerosis result was “attenuated”.
